Laboratory results reported in patent US20230339949A1, “HETEROCYCLIC SUBSTITUTED FUSED y-CARBOLINE DERIVATIVE, PREPARATION METHOD THEREFOR, INTERMEDIATE THEREOF AND USE THEREOF” (SHUJING BIOPHARMA CO., LTD, priority 2020, published 2023).
Read-outs that look alike come from different tables or passages of the source.

Assays:
5-HT2A receptor = biological target: T1, 5-HT2A receptor (Homo sapiens, UniProt P28223); test: Functional detection experiment of 5-HT2A receptor (cultured cells), calcium influx assay; type: cell-based
T1 construct: expressed in transfected cells
T1 sequence (P28223 whole entry): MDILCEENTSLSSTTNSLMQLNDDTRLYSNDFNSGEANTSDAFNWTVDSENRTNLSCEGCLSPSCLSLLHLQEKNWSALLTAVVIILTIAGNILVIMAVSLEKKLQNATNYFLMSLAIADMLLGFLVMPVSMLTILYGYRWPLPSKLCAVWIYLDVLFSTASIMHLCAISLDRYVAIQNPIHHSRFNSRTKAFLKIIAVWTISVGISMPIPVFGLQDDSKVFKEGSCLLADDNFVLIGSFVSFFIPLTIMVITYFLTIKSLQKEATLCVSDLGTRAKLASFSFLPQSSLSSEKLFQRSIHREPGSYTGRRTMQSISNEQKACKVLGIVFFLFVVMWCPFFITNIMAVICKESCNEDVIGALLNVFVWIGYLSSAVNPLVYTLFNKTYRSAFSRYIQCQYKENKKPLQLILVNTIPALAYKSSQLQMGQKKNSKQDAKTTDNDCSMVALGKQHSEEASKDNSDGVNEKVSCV
From the text: The antagonistic effect of the compound of the present disclosure on the 5-HT2A receptor was detected by a calcium influx assay at the cellular level.
• (1) Test compounds: compounds of the embodiments of the present disclosure, self-made. • (2) Control compound: serotonin hydrochloride 5-hydroxytryptamine (Sigma, H9523), Ketanserin (Targetmol, T1066). • (3) Stable cell line:
• (1) Preparation of test compounds: the compounds of the embodiments of the present disclosure were respectively dissolved in DMSO to prepare 10 mM mother liquor, and the mother liquor was stored in the nitrogen cabinet for later use. • (2) Preparation of control compound: the control compound was dissolved in DMSO to prepare 10 mM mother liquor, and the mother liquor was repackaged and stored in the refrigerator at -80° C. for later use. • (3) Preparation of 250 mM probenecid solution: 1 mL experimental buffer was added into a tube containing 77 mg powder, and the powder was dissolved by vortex oscillation. • (4) Preparation of 2× fluorescent probe solution: a bottle of fluorescent probe dry powder was taken out to balance to room temperature, and 10 mL of experimental buffer solution and 200 μL of 250 mM probenecid solution were added thereto, and the mixture was scrolled and let stand for 5 minutes to ensure complete dissolution. • (5) Experimental buffer HBSS: HBSS and HEPES were mixed evenly in a ratio of 50:1, stored in a refrigerator at 4° C., and heated at 37° C. when used.
• (1) Cells were taken out from the liquid nitrogen tank and melted in a water bath at 37° C. The surface of the cryopreservation tube was wiped with 75% alcohol and put in the biosafety cabinet. • (2) The cell suspension was transferred to a 15 mL centrifuge tube with 4 mL preheated plating medium, and the tube was centrifuged at 1000 rpm for 5 minutes. • (3) The supernatant was discarded, and 10 mL of plating medium was added and blown gently, and the mixture was transferred to a culture dish for growth. After the cells had adhered to the wall for 24 hours, they were replaced with growth medium for continuous culture.
• (1) The logarithmic growth cells was taken and the cells grew to about 85%-90%. The cells were performed the following operations: cell cleaning, digestion, termination, then transferred to a 15 mL centrifuge tube, and the tube was centrifuged at room temperature at 1000 rpm for 5 minutes. • (2) The supernatant was discarded, and a certain plating medium was added and blown gently. 20 μL of cell suspension was taken out and counted. • (3) Cells were diluted to 1×10^6 cells/mL and 20 μL of cell suspension was added to each well of the cell plate (Greiner-781946), so that the density of each well is 2×10^4 cells/well. • (4) The cell plate was incubated in an incubator with 5% CO2 at 37° C. for 16-24 hours. […]

D2S receptor = biological target: T2, D2S receptor (Homo sapiens, UniProt P14416); test: Functional activity test on D2S receptor, cAMP detection (Gi antagonist test); type: cell-based; conditions: cultured HEK293/D2S cells, forskolin + dopamine EC90
T2 construct: expressed in transfected cells
T2 sequence (P14416 1-414 isoform P14416-2): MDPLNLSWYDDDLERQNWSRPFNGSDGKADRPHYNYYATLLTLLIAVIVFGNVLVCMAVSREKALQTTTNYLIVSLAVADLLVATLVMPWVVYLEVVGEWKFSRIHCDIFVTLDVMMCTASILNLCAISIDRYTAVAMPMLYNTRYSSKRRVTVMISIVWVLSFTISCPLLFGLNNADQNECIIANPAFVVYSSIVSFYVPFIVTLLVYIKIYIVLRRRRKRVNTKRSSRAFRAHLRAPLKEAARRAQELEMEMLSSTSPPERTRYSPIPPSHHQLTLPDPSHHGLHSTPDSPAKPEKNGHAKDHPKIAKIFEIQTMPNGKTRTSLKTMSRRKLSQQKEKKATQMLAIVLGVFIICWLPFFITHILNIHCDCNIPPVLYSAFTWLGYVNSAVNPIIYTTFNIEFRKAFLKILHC
From the text: (§1) The antagonistic effects of the compounds of the present disclosure on D2L and D2S receptors were detected by cyclic adenosine monophosphate (cAMP) detection method at cell-level.
(§2) • (1) Test compound: compounds of the embodiment of the present disclosure, self-made. • (2) Control compound: dopamine hydrochloride (Sigma, H8502), (+)-Butaclamol hydrochloride (Sigma, D033). • (3) Stable cell line:
(§3) • (1) Preparation of test compounds: the compounds of the embodiments of the present disclosure were respectively dissolved in DMSO to prepare 10 mM mother liquor, and the mother liquor was stored in the nitrogen cabinet for later use. • (2) Preparation of control compound: the control compound was dissolved in DMSO to prepare 10 mM mother liquor, and the mother liquor was repackaged and stored in the refrigerator at −80° C. for later use. • (3) IBMX was dissolved in DMSO to prepare 0.5 M stock solution and the stock solution was cryopreserved at −80° C. • (4) Forskolin was dissolved in DMSO to prepare 1 mM stock solution and the stock solution was cryopreserved at −80° C. for later use. • (5) Experimental buffer: 5× stimulation buffer was diluted to 1× with ddH2O and IBMX with a final concentration of 0.5 mM was added thereto, and the solution was mixed well for later use.
(§4) • (1) Preparation of compounds: the test compounds and positive control compound (+)-Butaclamol hydrochloride were diluted gradient using Bravo in the compound plate (Greiner-781280), and the initial concentration of working solution was 20 μM, and the working solution was diluted at 4-fold for 10 concentrations and centrifuged at 1000 rpm for 1 minute for later use. • (2) Cryopreserved D2L cells: cells was taken out from the liquid nitrogen tank and thaw in a water bath at 37° C., and the cell suspension was transferred to a centrifuge tube containing HBSS buffer, and centrifuged at 750 rpm for 5 minutes.
(§5) Cultured D2S cells: after absorbing the culture medium, the cells were washed with 3 mL PBS, sucked out, digested with 0.05% Trypsin for 3 min, terminated with equal volume of culture medium, transferred to centrifuge tube, and centrifuged at 750 rpm for 5 minutes. After absorbing the liquid, the centrifuge tube was added with a buffer solution containing HBSS and re-suspend, and centrifuged at 750 rpm for 5 minutes. • (3) The supernatant was discarded, and the precipitate was re-suspended with proper amount of experimental buffer, and 20 μL was taken for cell counting. • (4) Appropriate amount of cell suspension was removed, and the cell suspension was diluted to 2×10^5 cells/mL with experimental buffer, and the cell plate (PerkinElmer-6008280) was added with 5 μL/well cell suspension, and centrifuged at 1000 rpm for 1 minute. • (5) 5 μL/well was transferred to the cell plate with Bravo, and the cell plate was centrifuged at 1000 rpm for 1 minute, then the cell plate was closed and incubated at room temperature for 15 minutes. • (6) Forskolin was transferred to the cell plate with Tecan-D300e, and Dopamine hydrochloride with a final concentration of EC90 was transferred to the cell plate. • (7) The cell plate was centrifuged at 1000 rpm for 1 minute, then sealed and incubated at room temperature for 45 minutes. • (8) Standard curve: cAMP with the stock solution concentration of 2848 nM was diluted 4-fold continuously at 8 points according to the initial maximum concentration of 712 nM, and 10 μL/well was taken out to add to the cell plate. • (9) 10 μL/well of detection solution containing cAMP-d2 and Anti-cAMP-Cryptate (diluted with pyrolysis buffer at 1:20) was added to the cell plate, and the cell plate was centrifuged at 1000 rpm for 1 minute, and incubated at room temperature without light for 1 hour. • (10) Detection: the cell plate was centrifuged at 1000 rpm for 1 minute, and the plate was read with Envision (excitation light 340 nm, emission light 620 nm and 665 nm). […]

[1] = test system: MK-801 induced hyperactivity behavior; test: MK-801 induced hyperactivity behavior in mice; type: in vivo, ICR mice; conditions: for ED50: Mus musculus, read-out: ED50 (half effective dose)
Description: The efficacy of the compounds of the present disclosure was evaluated by high activity model of mice induced by intraperitoneal injection of MK-801.
(§6) Experimental animals: ICR mice, male, 8 mice/group, Spelford (Beijing) Biotechnology Co., Ltd.
Preparation of drug: the test compounds were taken, and pure water was added, and ultrasonication was performed.
Administration route and method: gavage administration, 10 mL/kg (body weight).
(§7) Administration frequency and duration: single dose.
Animals were stratified by body weight and then randomly divided into blank group, model group, and administration group, and detailed information of administration is shown in the following table.
Mice were stratified according to body weight and then randomly divided into model group, blank group and each administration group. One hour after the gavage administration of solvent or drug, 0.3 mg/kg MK-801 was injected intraperitoneally (the blank group was injected with the same volume of physiological saline), and then the mice were put into an independent activity box (a black polyethylene box with the specification of 29 cm×29 cm×30 cm) for video recording for 60 minutes, and video analysis was performed at the end of the recording to evaluate the activity of the mice.
(§8) The experimental data were expressed as x±SD, and SPSS statistical software was used to test the homogeneity of variance. If the variance was homogeneous, single factor analysis of variance was performed, and Dunnett t test is used for pairwise comparison. The ED50 was calculated by nonlinear fitting with GraphPad Primis5 software.

D2L receptor = biological target: T3, D2L receptor (Homo sapiens, UniProt P14416); test: Functional activity test on D2L receptor, cAMP detection (Gi antagonist test); type: cell-based; conditions: cryopreserved CHO-K1/D2L/Gα15 cells, forskolin + dopamine EC90
T3 construct: expressed in transfected cells
T3 sequence (P14416 whole entry): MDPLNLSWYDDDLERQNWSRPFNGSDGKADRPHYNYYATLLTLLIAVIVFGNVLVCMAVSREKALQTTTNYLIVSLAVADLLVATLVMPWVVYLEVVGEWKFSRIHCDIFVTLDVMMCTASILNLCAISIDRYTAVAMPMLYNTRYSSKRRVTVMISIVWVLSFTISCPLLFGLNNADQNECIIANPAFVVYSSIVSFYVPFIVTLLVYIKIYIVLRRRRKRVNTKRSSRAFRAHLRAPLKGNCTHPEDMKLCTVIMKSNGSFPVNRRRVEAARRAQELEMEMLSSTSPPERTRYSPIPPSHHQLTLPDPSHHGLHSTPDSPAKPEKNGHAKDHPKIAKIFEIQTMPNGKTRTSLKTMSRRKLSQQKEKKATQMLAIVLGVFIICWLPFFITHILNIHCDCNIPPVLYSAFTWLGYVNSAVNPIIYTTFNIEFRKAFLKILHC
From the text: as §1, §2, §3, §4, §5

[2] = test system: DOI-induced head-shaking behavior; test: DOI-induced head-shaking behavior in mice; type: in vivo, ICR mice; conditions: Mus musculus, read-out: ED50 (half effective dose)
Description: The efficacy of the compounds of the present disclosure was evaluated by the mice model of head-shaking behavior induced by intraperitoneal injection of (±) DOI (a hallucinogenic agent usually used to replicate anti-schizophrenic animal model).
as §6
Preparation of drug: the test compounds were taken, and solvent was added, and ultrasonication was performed.
Administration route and method: oral gavage administration, 10 mL/kg (body weight).
as §7
Animals were stratified by body weight and then randomly divided into blank group, model group, and administration groups, and detailed information of administration is shown in the following table.
Mice were stratified according to body weight and then randomly divided into model group, blank group and each administration group. One hour after the animals were gavage administration of the solvent or drugs, they were placed in a beaker (13 cm in diameter, 19 cm in height) with fresh padding, and the model drug DOI was injected intraperitoneally at a dose of 1 mg/kg. The times of head-shaking were recorded within 0-20 minutes after DOI was injected intraperitoneally.
Head-shaking behavior is defined as rapid rotational twitch of mouse's head or wet dog-like shaking, which should be different from normal hair grooming or inquiry behavior.
as §8

[3] = cultured CHO-K1/5-HT2A cells, calcium influx (FLIPR), antagonist mode vs agonist EC80, read-out: 5-HT2A IC50
[4] = male ICR mice, single gavage dose 1 h before MK-801 0.3 mg/kg i.p., activity recorded 60 min

Row | SMILES | IC50 (5-HT2A receptor; [3]) [nM] | IC50 (D2S receptor) [nM] | IC50 (D2L receptor) [nM] | ED50 [1, 4] [mg/kg] | MED (lowest effective dose) [1, 4] [mg/kg] | ED50 [2] [mg/kg] | IC50 (5-HT2A receptor) [nM] | ED50 [1] [mg/kg]
1 | CN1C(=O)CN2c3c(cccc31)C1CN(CCCC(=O)c3ccc(F)cc3)CCC12 (centres unmarked) [Comparative embodiment 1, 8-(4-(4-fluorophenyl)-4-oxobutyl)-3-methyl-6b,7,8,9,10,10a-hexahydro-1H-pyrido [3′,4′:4,5]pyrrolo[1,2,3-de]quinoxalin-2(3H)-one, reference compound] | 44.4 | 364 | 200 | 1.28 | 1 | – | – | –
2 | CCN1C(=O)CN2c3c1cccc3C1(C)CN(CCCC(=O)c3ccc(F)cc3)CCC21 (centres unmarked) [Embodiment 3, 3-ethyl-8-(4-(4-fluorophenyl)-4-oxobutyl)-6b-methyl-6b,7,8,9,10,10a-hexahydro-1H-pyrido[3′,4′:4,5]pyrrolo[1,2,3-de]quinoxalin-2(3H)-one] | – | 207 | 51.4 | – | – | 0.21 | – | –
3 | CN1C(=O)C(C)(C)N2c3c1cccc3C1(C)CN(CCCC(=O)c3ccc(F)cc3)CCC21 (centres unmarked) [Embodiment 4, 8-(4-(4-fluorophenyl)-4-oxobutyl)-1,1,3,6b-tetramethyl-6b,7,8,9,10,10a-hexahydro-1H-pyrido [3′,4′:4,5]pyrrolo[1,2,3-de]quinoxalin-2(3H)-one] | – | – | – | – | – | 0.42 | 19.7 | –
4 | Cn1c(=O)c(=O)n2c3c(cccc31)C1(C)CN(CCCC(=O)c3ccc(F)cc3)CCC21 (centres unmarked) [Embodiment 5, 8-(4-(4-fluorophenyl)-4-oxobutyl)-3,6b-dimethyl-6b,7,8,9,10,10a-hexahydro-1H-pyrido[3′,4′:4,5]pyrrolo[1,2,3-de]quinoxaline-1,2(3H)-dione] | – | 93.4 | 13.1 | – | – | – | – | –
5 | CN1CCN2c3c1cccc3C1(C)CN(CCCC(=O)c3ccc(F)cc3)CCC21 (centres unmarked) [Embodiment 7, 4-(3,6b-dimethyl-2,3,6b,9,10,10a-hexahydro-1H-pyrido[3′,4′:4,5]pyrrolo[1,2,3-de]quinoxalin-8(7H)-yl)-1-(4-fluorophenyl)butan-1-one] | – | – | – | – | 0.1 | – | 3.5 | 0.09

Second part, led by results:

Row | IC50 (5-HT2A receptor; [3]) [nM] | IC50 (D2S receptor) [nM] | IC50 (D2L receptor) [nM] | SMILES | ED50 [1, 4] [mg/kg] | MED (lowest effective dose) [1, 4] [mg/kg] | ED50 [2] [mg/kg] | IC50 (5-HT2A receptor) [nM] | ED50 [1] [mg/kg]
6 | 9.11 | 264 | 88.8 | CN1C(=O)CN2c3c(cccc31)[C@@H]1CN(CCCC(=O)c3ccc(F)cc3)CC[C@@H]12 [Comparative embodiment 1-A, reference compound] | – | – | – | – | –
7 | – | 622 | 35.8 | CN1CCN2c3c(cccc31)C1CN(CCCC(=O)c3ccc(F)cc3)CCC12 (centres unmarked) [Comparative embodiment 2, 1-(4-fluorophenyl)-4-(3-methyl-2,3,6b,9,10,10a-hexahydro-1H-pyrido[3′,4′:4,5]pyrrolo[1,2,3-de]quinoxalin-8(7H)-yl)butan-1-one, reference compound] | – | – | – | – | –
8 | 108 | 63.1 | 15.5 | CN1C(=O)CN2c3c1cccc3[C@@]1(C)CN(CCCC(=O)c3ccc(F)cc3)CC[C@@H]21 [Embodiment 1-B, (6bS,10aR)-8-(4-(4-fluorophenyl)-4-oxobutyl)-3,6b-dimethyl-6b,7,8,9,10,10a-hexahydro-1H-pyrido[3′,4′:4,5]pyrrolo [1,2,3-de]quinoxalin-2(3H)-one] | – | – | – | – | –
